Here are results for 10 molecules from patent US8653096B2, “Chemokine receptor antagonists and methods of use thereof” (Millennium Pharmaceuticals, Inc., priority 2001, dated 2014).

The target in the test is T1, RANTES/MIP-1α chemokine receptor (CCR1) in THP-1 cell membranes (Homo sapiens, UniProt P32246).
T1 construct: Membranes were prepared from THP-1 cells (ATCC #TIB202); host or cells: THP-1 cells (membrane preparation)
T1 sequence (P32246 1-355): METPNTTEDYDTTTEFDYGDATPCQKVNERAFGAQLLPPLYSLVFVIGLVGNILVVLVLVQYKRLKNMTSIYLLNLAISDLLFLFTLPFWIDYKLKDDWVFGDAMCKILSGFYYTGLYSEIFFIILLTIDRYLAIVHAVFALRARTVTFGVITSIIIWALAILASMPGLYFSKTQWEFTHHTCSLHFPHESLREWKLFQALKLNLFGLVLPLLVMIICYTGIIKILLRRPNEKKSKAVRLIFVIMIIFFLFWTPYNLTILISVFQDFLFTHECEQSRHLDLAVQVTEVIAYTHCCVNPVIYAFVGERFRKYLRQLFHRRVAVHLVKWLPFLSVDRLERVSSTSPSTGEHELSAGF
The test can be described thus: Receptor binding assay: 125I-RANTES or 125I-MIP-1α binding to THP-1 cell membranes. To be noted: inhibitor concentration required for 50% inhibition of specific binding; 125I-RANTES or 125I-MIP-1α as ligand, THP-1 cell membranes; read-out: IC50.
The term IC50 denotes the concentration at which inhibition is half-maximal. As for `CC1CN(CCC=C2c3cc(C(C)(C)O)ccc3OCc3ncccc32)CCC1(F)c1ccc(Cl)cc1` (stereo not shown) [Example 469, 2-(5-{3-[4-(4-Chloro-phenyl)-4-fluoro-3-methyl-piperidin-1-yl]-propylidene}-5,11-dihydro-10-oxa-1-aza-dibenzo[a,d]cyclohepten-7-yl)-propan-2-ol], the IC50 is less than 1000 nM.
The figure for `CC(C)(O)c1ccc2c(c1)C(=CCCN1CCC(O)(c3ccc(Cl)cc3)C(O)C1)c1cccnc1CO2` (stereo not shown) [Example 470, 4-(4-Chloro-phenyl)-1-{3-[7-(1-hydroxy-1-methyl-ethyl)-11H-10-oxa-1-aza-dibenzo[a,d]cyclohepten-5-ylidene]-propyl}-piperidine-3,4-diol] is less than 1000 nM.
For the molecule `CCC1CN(CCC=C2c3cc(C(C)(C)O)ccc3OCc3ncccc32)CCC1(O)c1ccc(Cl)cc1` (stereo not shown) [Example 471, 4-(4-Chloro-phenyl)-3-ethyl-1-{3-[7-(1-hydroxy-1-methyl-ethyl)-11H-10-oxa-1-aza-dibenzo[a,d]cyclohepten-5-ylidene]-propyl}-piperidin-4-ol], the IC50 is less than 1000 nM.
The figure for `CC(C)(O)c1ccc2c(c1)C(=CCCN1CCC3(CC1)OC(=O)c1cc(Cl)ccc13)c1cccnc1CO2` [Example 472, 5-Chloro-1-{3-[7-(1-hydroxy-1-methyl-ethyl)-11H-10-oxa-1-aza-dibenzo[a,d]-cyclohepten-5-ylidene}-propyl]-spiro[3-oxo-1,3-dihydroisobenzofuran-1,4′-piperidine]] is less than 1000 nM; for `COC1(c2ccc(Cl)cc2)CCN(CCC=C2c3cc(C(C)(C)O)ccc3OCc3ncccc32)CC1(C)O` (stereo not shown) [Example 473, 4-(4-Chloro-phenyl)-1-{3-[7-(1-hydroxy-1-methyl-ethyl)-11H-10-oxa-1-aza-dibenzo[a,d]cyclohepten-5-ylidene]-propyl}-4-methoxy-3-methyl-piperidin-3-ol] it is less than 1000 nM.
With `COC1(c2ccc(Cl)cc2)CCN(CCC=C2c3cc(C(C)(C)O)ccc3OCc3ncccc32)CC1O` (stereo not shown) [Example 474, 4-(4-Chloro-phenyl)-1-{3-[7-(1-hydroxy-1-methyl-ethyl)-11H-10-oxa-1-aza-dibenzo[a,d]cyclohepten-5-ylidene]-propyl}-4-methoxy-piperidin-3-ol] the figure was less than 1000 nM; with `COC1CN(CCC=C2c3cc(C(C)(C)O)ccc3OCc3ncccc32)CCC1(OC)c1ccc(Cl)cc1` (stereo not shown) [Example 475, 2-(5-{3-[4-(4-Chloro-phenyl)-3,4-dimethoxy-piperidin-1-yl]-propylidene}-5,11-dihydro-10-oxa-1-aza-dibenzo[a,d]cyclohepten-7-yl)-propan-2-ol], less than 1000 nM; with `CC(C)(O)c1ccc2c(c1)C(=CCCN1CCC(O)(c3ccc(Cl)cc3)C(N=[N+]=[N-])C1)c1cccnc1CO2` (stereo not shown) [Example 476, 3-Azido-4-(4-chloro-phenyl)-1-{3-[7-(1-hydroxy-1-methyl-ethyl)-11H-10-oxa-1-aza-dibenzo[a,d]cyclohepten-5-ylidene}-propyl}-piperidin-4-ol], less than 1000 nM.
On to `CC(C)(O)c1ccc2c(c1)C(=CCCN1CCC(N=[N+]=[N-])(c3ccc(Cl)cc3)C(O)C1)c1cccnc1CO2` (stereo not shown) [Example 477, 4-Azido-4-(4-chloro-phenyl)-1-{3-[7-(1-hydroxy-1-methyl-ethyl)-11H-10-oxa-1-aza-dibenzo[a,d]cyclohepten-5-ylidene]-propyl}-piperidin-3-ol], for which the IC50 was less than 10000 nM.
The figure for `CCC(=O)NC1CN(CCC=C2c3cc(C(C)(C)O)ccc3OCc3ncccc32)CCC1(O)c1ccc(Cl)cc1` (stereo not shown) [Example 478, N-[4-(4-Chloro-phenyl)-4-hydroxy-1-{3-[7-(hydroxyl-1-methyl-ethyl)-11H-10-oxa-1-aza-dibenzo[a,d]cyclohepten-5-ylidene]-propyl}-piperidin-3-yl)-propionamide] is less than 10000 nM.
